Results reported in patent US20250129070A1, “BIFUNCTIONAL ANDROGEN RECEPTOR COMPOUNDS” (priority 2023, published 2025).

System: AR / CBP ternary complex
Assay: Ternary complex formation assay (sandwich ELISA, AR capture / CBP detection) in VCaP cell lysates
Format: cell-based
Settings: 1.5 hours treatment, sandwich ELISA (AR capture, CBP or p300 detection)
Procedure, shortened: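 Anti-AR (AR 441)-coated plates capture AR from lysates of VCaP cells grown ≥3 days at 50K/well in 5% charcoal-stripped FBS, dosed with bifunctional for 1.5 h and lysed 30 min at 4 °C. Co-captured CBP/p300 is probed with rabbit mAb and HRP anti-rabbit, then QuantaRed fluorescence (570/585) is read at 0, 5 and 15 min.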

SMILES	EC50 [nM]
COc1cc(OC2C(C)(C)C(NC(=N)c3ccc(N4CCC(N(C)C5CCC(n6nc(N7CCCc8cc(-c9cnn(C)c9)c(C(F)F)cc87)c7c6CCN(C(C)=O)C7)CC5)CC4)cc3)C2(C)C)ccc1C#N (stereo not shown) [Compound 278, 4-[4-[[4-[5-acetyl-3-[7-(difluoromethyl)-6-(1-methylpyrazol-4-yl)-3,4-dihydro-2H-quinolin-1-yl]-6,7-dihydro-4H-pyrazolo[4,3-c]pyridin-1-yl]cyclohexyl]-methyl-amino]-1-piperidyl]-N-[3-(4-cyano-3-methoxy-phenoxy)-2,2,4,4-tetramethyl-cyclobutyl]benzamidine]	< 1
COc1cc(OC2C(C)(C)C(NC(=O)c3ccc(OC4CCC(N5CCC(n6nc(N7CCCc8cc(-c9cnn(C)c9)c(C(F)F)cc87)c7c6CCN(C(C)=O)C7)CC5)CC4)cc3)C2(C)C)ccc1C#N (stereo not shown) [Compound 381, 4-[4-[4-[5-acetyl-3-[7-(difluoromethyl)-6-(1-methylpyrazol-4-yl)-3,4-dihydro-2H-quinolin-1-yl]-6,7-dihydro-4H-pyrazolo[4,3-c]pyridin-1-yl]-1-piperidyl]cyclohexoxy]-N-[3-(4-cyano-3-methoxy-phenoxy)-2,2,4,4-tetramethyl-cyclobutyl]benzamide]	< 1
CC(=O)N1CCc2c(c(N3CCCc4cc(-c5cnn(C)c5)c(C(F)F)cc43)nn2C2CCN(C(=O)C3CN(c4ncc(C(=O)NC5C(C)(C)C(Oc6ccc(C#N)c(Cl)c6)C5(C)C)cn4)C3)CC2)C1 (stereo not shown) [Compound 118, 2-[3-[4-[5-acetyl-3-[7-(difluoromethyl)-6-(1-methylpyrazol-4-yl)-3,4-dihydro-2H-quinolin-1-yl]-6,7-dihydro-4H-pyrazolo[4,3-c]pyridin-1-yl]piperidine-1-carbonyl]azetidin-1-yl]-N-[3-(3-chloro-4-cyano-phenoxy)-2,2,4,4-tetramethyl-cyclobutyl]pyrimidine-5-carboxamide]	> 100
CC(=O)N1CCc2c(c(N3CCCc4cc(-c5cnn(C)c5)c(C(F)F)cc43)nn2C2CCN(C(=O)C3CCN(c4ccc(C(=O)NC5C(C)(C)C(Oc6ccc(C#N)c(Cl)c6)C5(C)C)cc4)CC3)CC2)C1 (stereo not shown) [Compound 116, 4-[4-[4-[5-acetyl-3-[7-(difluoromethyl)-6-(1-methylpyrazol-4-yl)-3,4-dihydro-2H-quinolin-1-yl]-6,7-dihydro-4H-pyrazolo[4,3-c]pyridin-1-yl]piperidine-1-carbonyl]-1-piperidyl]-N-[3-(3-chloro-4-cyano-phenoxy)-2,2,4,4-tetramethyl-cyclobutyl]benzamide]	> 100
CC(=O)N1CCc2c(c(N3CCCc4cc(-c5cnn(C)c5)c(C(F)F)cc43)nn2C2CCN(C(=O)N3CCN(c4ncc(C(=O)NC5C(C)(C)C(Oc6ccc(C#N)c(Cl)c6)C5(C)C)cn4)CC3)CC2)C1 (stereo not shown) [Compound 112, 2-[4-[4-[5-acetyl-3-[7-(difluoromethyl)-6-(1-methylpyrazol-4-yl)-3,4-dihydro-2H-quinolin-1-yl]-6,7-dihydro-4H-pyrazolo[4,3-c]pyridin-1-yl]piperidine-1-carbonyl]piperazin-1-yl]-N-[3-(3-chloro-4-cyano-phenoxy)-2,2,4,4-tetramethyl-cyclobutyl]pyrimidine-5-carboxamide]	< 1
CC(=O)N1CCc2c(c(N3CCCc4cc(-c5cnn(C)c5)c(C(F)F)cc43)nn2C2CC3(C2)CN(CC2CN(c4ccc(C(=O)NC5C(C)(C)C(Oc6ccc(C#N)c(Cl)c6)C5(C)C)nn4)C2)C3)C1 (stereo not shown) [Compound 212, 6-[3-[[6-[5-acetyl-3-[7-(difluoromethyl)-6-(1-methylpyrazol-4-yl)-3,4-dihydro-2H-quinolin-1-yl]-6,7-dihydro-4H-pyrazolo[4,3-c]pyridin-1-yl]-2-azaspiro [3.3]heptan-2-yl]methyl]azetidin-1-yl]-N-[3-(3-chloro-4-cyano-phenoxy)-2,2,4,4-tetramethyl-cyclobutyl]pyridazine-3-carboxamide]	10 to 100
COc1cc(OC2C(C)(C)C(NC(=O)c3ccc(N4CCC5(CC4)CC(Oc4ccc(-c6cc7c(cc6C(F)F)N(c6nn(C8CCOCC8)c8c6CN(C(C)=O)CC8)CCC7)cc4)C5)cc3)C2(C)C)ccc1C#N (stereo not shown) [Compound 307, 4-[2-[4-[1-(5-acetyl-1-tetrahydropyran-4-yl-6,7-dihydro-4H-pyrazolo[4,3-c]pyridin-3-yl)-7-(difluoromethyl)-3,4-dihydro-2H-quinolin-6-yl]phenoxy]-7-azaspiro[3.5]nonan-7-yl]-N-[3-(4-cyano-3-methoxy-phenoxy)-2,2,4,4-tetramethyl-cyclobutyl]benzamide]	1 to 10
COc1cc(OC2C(C)(C)C(NC(=O)c3ccc(N4CC5(CCC(N6CCC(n7nc(N8CCCc9cc(C#N)c(C(F)F)cc98)c8c7CCN(C(C)=O)C8)CC6)CC5)C4)cc3)C2(C)C)ccc1C#N (stereo not shown) [Compound 452, 4-[7-[4-[5-acetyl-3-[6-cyano-7-(difluoromethyl)-3,4-dihydro-2H-quinolin-1-yl]-6,7-dihydro-4H-pyrazolo[4,3-c]pyridin-1-yl]-1-piperidyl]-2-azaspiro[3.5]nonan-2-yl]-N-[3-(4-cyano-3-methoxy-phenoxy)-2,2,4,4-tetramethyl-cyclobutyl]benzamide]	< 1

Now from value to compound:

EC50 [nM]	SMILES
< 1	COc1cc(OC2C(C)(C)C(NC(=O)c3cnc(N4CC5(CCC(N6CCC(n7nc(N8CCCc9cc(-c%10cnn(C)c%10)c(C)cc98)c8c7CCN(C(C)=O)C8)CC6)CC5)C4)nc3)C2(C)C)ccc1C#N (stereo not shown) [Compound 469, 2-[7-[4-[5-acetyl-3-[7-methyl-6-(1-methylpyrazol-4-yl)-3,4-dihydro-2H-quinolin-1-yl]-6,7-dihydro-4H-pyrazolo[4,3-c]pyridin-1-yl]-1-piperidyl]-2-azaspiro [3.5]nonan-2-yl]-N-[3-(4-cyano-3-methoxy-phenoxy)-2,2,4,4-tetramethyl-cyclobutyl]pyrimidine-5-carboxamide]
< 1	CC(=O)N1CCc2c(c(N3CCCc4cc(-c5cnn(C)c5)c(C(F)F)cc43)nn2C2CCN(C3CC(C#Cc4ncc(C(=O)NC5C(C)(C)C(Oc6ccc(C#N)c(Cl)c6)C5(C)C)cn4)C3)CC2)C1 (stereo not shown) [Compound 295, 2-[2-[3-[4-[5-acetyl-3-[7-(difluoromethyl)-6-(1-methylpyrazol-4-yl)-3,4-dihydro-2H-quinolin-1-yl]-6,7-dihydro-4H-pyrazolo[4,3-c]pyridin-1-yl]-1-piperidyl]cyclobutyl]ethynyl]-N-[3-(3-chloro-4-cyano-phenoxy)-2,2,4,4-tetramethyl-cyclobutyl]pyrimidine-5-carboxamide]
< 1	CC(=O)N1CCc2c(c(-c3cccc4cc(-c5cnn(C)c5)ncc34)nn2C2CCN(CC3C(C)CN(c4ncc(C(=O)NC5C(C)(C)C(Oc6ccc(C#N)c(Cl)c6)C5(C)C)cn4)CC3C)CC2)C1 (stereo not shown) [Compound 440, 2-[4-[[4-[5-acetyl-3-[3-(1-methylpyrazol-4-yl)-8-isoquinolyl]-6,7-dihydro-4H-pyrazolo[4,3-c]pyridin-1-yl]-1-piperidyl]methyl]-3,5-dimethyl-1-piperidyl]-N-[3-(3-chloro-4-cyano-phenoxy)-2,2,4,4-tetramethyl-cyclobutyl]pyrimidine-5-carboxamide]
< 1	COc1cc(OC2C(C)(C)C(NC(=O)c3ccc(N4CC(C)C(CN5CCC(n6nc(-c7cccc8cc(-c9cnn(C)c9)ncc78)c7c6CCN(C(C)=O)C7)CC5)C(C)C4)cc3)C2(C)C)ccc1C#N (stereo not shown) [Compound 441, 4-[4-[[4-[5-acetyl-3-[3-(1-methylpyrazol-4-yl)-8-isoquinolyl]-6,7-dihydro-4H-pyrazolo[4,3-c]pyridin-1-yl]-1-piperidyl]methyl]-3,5-dimethyl-1-piperidyl]-N-[3-(4-cyano-3-methoxy-phenoxy)-2,2,4,4-tetramethyl-cyclobutyl]benzamide]
< 1	CC(=O)N1CCc2c(c(N3CCCc4cnccc43)nn2C2CCN(CC3CCN(c4ncc(C(=O)NC5C(C)(C)C(Oc6ccc(C#N)c(Cl)c6)C5(C)C)cn4)CC3)CC2)C1 (stereo not shown) [Compound 157, 2-[4-[[4-[5-acetyl-3-(3,4-dihydro-2H-1,6-naphthyridin-1-yl)-6,7-dihydro-4H-pyrazolo[4,3-c]pyridin-1-yl]-1-piperidyl]methyl]-1-piperidyl]-N-[3-(3-chloro-4-cyano-phenoxy)-2,2,4,4-tetramethyl-cyclobutyl]pyrimidine-5-carboxamide]
< 1	CC(=O)N1CCc2c(c(N3CCCc4cc(-c5cnn(C)c5)c(C(F)F)cc43)nn2C2CCC(COC3CCN(c4ncc(C(=O)NC5C(C)(C)C(Oc6ccc(C#N)c(Cl)c6)C5(C)C)cn4)CC3)CC2)C1 (stereo not shown) [Compound 173, 2-[4-[[4-[5-acetyl-3-[7-(difluoromethyl)-6-(1-methylpyrazol-4-yl)-3,4-dihydro-2H-quinolin-1-yl]-6,7-dihydro-4H-pyrazolo[4,3-c]pyridin-1-yl]cyclohexyl]methoxy]-1-piperidyl]-N-[3-(3-chloro-4-cyano-phenoxy)-2,2,4,4-tetramethyl-cyclobutyl]pyrimidine-5-carboxamide]
< 1	CC(=O)N1CCc2c(c(N3CCCc4cc(-c5cnn(C)c5)c(C(F)F)cc43)nn2C2CCC(N(C)C3CCN(c4ncc(C(=O)NC5C(C)(C)C(Oc6ccc(C#N)c(Cl)c6)C5(C)C)cn4)CC3)CC2)C1 (stereo not shown) [Compound 282, 2-[4-[[4-[5-acetyl-3-[7-(difluoromethyl)-6-(1-methylpyrazol-4-yl)-3,4-dihydro-2H-quinolin-1-yl]-6,7-dihydro-4H-pyrazolo[4,3-c]pyridin-1-yl]cyclohexyl]-methyl-amino]-1-piperidyl]-N-[3-(3-chloro-4-cyano-phenoxy)-2,2,4,4-tetramethyl-cyclobutyl]pyrimidine-5-carboxamide]
< 1	CC(=O)N1CCc2c(c(N3CCCc4cc(-c5cnn(C)c5)c(C)cc43)nn2C2CCN(C(=O)CC3CCN(c4ncc(C(=O)NC5C(C)(C)C(Oc6ccc(C#N)c(Cl)c6)C5(C)C)cn4)CC3)CC2)C1 (stereo not shown) [Compound 176, 2-[4-[2-[4-[5-acetyl-3-[7-methyl-6-(1-methylpyrazol-4-yl)-3,4-dihydro-2H-quinolin-1-yl]-6,7-dihydro-4H-pyrazolo[4,3-c]pyridin-1-yl]-1-piperidyl]-2-oxo-ethyl]-1-piperidyl]-N-[3-(3-chloro-4-cyano-phenoxy)-2,2,4,4-tetramethyl-cyclobutyl]pyrimidine-5-carboxamide]
